In ChEMBL document CHEMBL3856228, “Design and Synthesis of Pyridone-Containing 3,4-Dihydroisoquinoline-1(2H)-ones as a Novel Class of Enhancer of Zeste Homolog 2 (EZH2) Inhibitors” (J Med Chem, 2016):
≈ marks a conversion by molar mass, not a printed value. Calls of active or inactive are those of the source. The rule behind the calls is not given here.

Columns and labels:
[1] = Kinetic solubility of the compound; type: physicochemical; settings: read-out: Kinetic_solubility
[2] = molecular target: Histone-lysine N-methyltransferase EZH2 (Homo sapiens, UniProt Q15910); test: Inhibition of EZH2 in human KARPAS422 cells assessed as reduction in H3K27Me3 levels after 72 hrs by ELISA; type: cell-based
[3] = Intrinsic clearance in human liver microsomes at 1 uM after 45 mins in presence of NADPH by LC-MS/MS analysis; type: ADME; settings: read-out: CLH
MDR1 [4] = test: Permeability across apical to basolateral side in MDCK cells expressing MDR1; type: ADME, cell-based, Canis lupus familiaris; settings: dog, read-out: permeability
[5] = Lipophilicity, log D of the compound at pH 7.4; settings: buffer
[6] = Cytotoxicity against human KARPAS422 cells assessed as inhibition of cell proliferation after 72 hrs; type: functional, cell-based; settings: KARPAS-422, 72 h
[7] = Permeability in RRCK cells; type: ADME, cell-based, Canis lupus familiaris, MDCKII-LE; settings: dog, MDCK; read-out: permeability
[8] = molecular target: T1, Histone-lysine N-methyltransferase EZH2 (Homo sapiens, UniProt O75530+Q09028+Q15022+Q15910); test: Inhibition of wild-type EZH2 (unknown origin) expressed in baculovirus infected SF9 cells co-expressing SUZ12/EED/RbAp48 complex using HeLa cells derived oligonucleosomes as substrate after 60 mins in presence of [3H] SAM by scintillation counting
[9] = molecular target: T1, Histone-lysine N-methyltransferase EZH2; test: Binding affinity to EZH2 (unknown origin) expressed in baculovirus infected SF9 cells co-expressing SUZ12/EED/RbAp48 complex by ITC analysis
[10] = molecular target: Histone-lysine N-methyltransferase EZH2 (Homo sapiens, UniProt O75530+Q09028+Q15022+Q15910, Y641N); test: Inhibition of EZH2 Y641N mutant (unknown origin) expressed in baculovirus infected SF9 cells co-expressing SUZ12/EED/RbAp48 complex using HeLa cells derived oligonucleosomes as substrate after 60 mins in presence of [3H] SAM by scintillation counting
[11] = Intrinsic clearance in mouse liver microsomes at 1 uM after 45 mins in presence of NADPH by LC-MS/MS analysis; type: ADME; settings: read-out: CLH
MDR1 [12] = test: in vitro; settings: dog, MDCK-MDR1
Description: Efflux ratio of permeability from basolateral to apical side over apical to basolateral side in MDCK cells expressing MDR1

Mus musculus [13] = test: In vivo inhibition of EZH2 in Scid beige mouse xenografted with human KARPAS422 cells assessed as upregulation of TNFRSF21 expression at 200 mg/kg, bid for 20 days measured 1 to 4 hrs post last dose on day 20 relative to control; type: functional
Mus musculus [14] = test: In vivo inhibition of EZH2 in human KARPAS422 cells xenografted in Scid beige mouse assessed as reduction in H3K27Me3 levels at 200 mg/kg, bid for 20 days measured 1 to 4 hrs post last dose on day 20 by ELISA; type: functional; settings: KARPAS-422
[15] = Time duration during which free plasma concentration stays at or below in vitro cell IC50 in mouse at 30 to 100 mg/kg; type: ADME, organism-based; settings: in vivo
KARPAS-422 [16] = test: Antitumor activity against human KARPAS422 cells xenografted in Scid beige mouse assessed as tumor stasis at 200 to 300 mg/kg, bid for 20 days measured on day 20; type: functional, organism-based
Mus musculus [17] = test: In vivo inhibition of EZH2 in Scid beige mouse xenografted with human KARPAS422 cells assessed as upregulation of PRDM1 expression at 300 mg/kg, bid for 20 days measured 1 to 4 hrs post last dose on day 20 relative to control; type: functional
Mus musculus [18] = test: In vivo inhibition of EZH2 in Scid beige mouse xenografted with human KARPAS422 cells assessed as upregulation of TNFRSF21 expression at 300 mg/kg, bid for 20 days measured 1 to 4 hrs post last dose on day 20 relative to control; type: functional
KARPAS-422 [19] = test: Antitumor activity against human KARPAS422 cells xenografted in Scid beige mouse assessed as tumor regression at 200 to 300 mg/kg, bid for 20 days measured on day 20; type: functional, organism-based
Mus musculus [20] = test: In vivo inhibition of EZH2 in Scid beige mouse xenografted with human KARPAS422 cells assessed as upregulation of PRDM1 expression at 200 mg/kg, bid for 20 days measured 1 to 4 hrs post last dose on day 20 relative to control; type: functional
Mus musculus [21] = test: In vivo inhibition of EZH2 in Scid beige mouse xenografted with human KARPAS422 cells assessed as reduction in H3K27Me3 levels at 300 mg/kg, bid for 20 days measured 1 to 4 hrs post last dose on day 20 by ELISA; type: functional; settings: KARPAS-422
KARPAS-422 [22] = test: Antitumor activity against human KARPAS422 cells xenografted in Scid beige mouse assessed as tumor growth inhibition at 200 to 300 mg/kg, bid for 20 days measured for 3 weeks post last dose; type: functional, organism-based
[23] = Time duration during which free plasma concentration stays above in vitro cell IC90 in mouse at 300 mg/kg; type: ADME, organism-based; settings: in vivo
[24] = Protein binding in mouse plasma at 30 to 300 mg/kg; type: ADME, organism-based; settings: read-out: PPB (converted)
Mus musculus [25] = test: Toxicity in Scid beige mouse xenografted with human KARPAS422 cells assessed as body weight loss at 200 to 300 mg/kg, bid for 20 days measured during compound dosing; type: organism-based; settings: in vivo, 480 h

Chain of Histone-lysine N-methyltransferase EZH2 (Homo sapiens, UniProt O75530+Q09028+Q15022+Q15910, Y641N) (Q15910 whole entry Y641N, one chain of several): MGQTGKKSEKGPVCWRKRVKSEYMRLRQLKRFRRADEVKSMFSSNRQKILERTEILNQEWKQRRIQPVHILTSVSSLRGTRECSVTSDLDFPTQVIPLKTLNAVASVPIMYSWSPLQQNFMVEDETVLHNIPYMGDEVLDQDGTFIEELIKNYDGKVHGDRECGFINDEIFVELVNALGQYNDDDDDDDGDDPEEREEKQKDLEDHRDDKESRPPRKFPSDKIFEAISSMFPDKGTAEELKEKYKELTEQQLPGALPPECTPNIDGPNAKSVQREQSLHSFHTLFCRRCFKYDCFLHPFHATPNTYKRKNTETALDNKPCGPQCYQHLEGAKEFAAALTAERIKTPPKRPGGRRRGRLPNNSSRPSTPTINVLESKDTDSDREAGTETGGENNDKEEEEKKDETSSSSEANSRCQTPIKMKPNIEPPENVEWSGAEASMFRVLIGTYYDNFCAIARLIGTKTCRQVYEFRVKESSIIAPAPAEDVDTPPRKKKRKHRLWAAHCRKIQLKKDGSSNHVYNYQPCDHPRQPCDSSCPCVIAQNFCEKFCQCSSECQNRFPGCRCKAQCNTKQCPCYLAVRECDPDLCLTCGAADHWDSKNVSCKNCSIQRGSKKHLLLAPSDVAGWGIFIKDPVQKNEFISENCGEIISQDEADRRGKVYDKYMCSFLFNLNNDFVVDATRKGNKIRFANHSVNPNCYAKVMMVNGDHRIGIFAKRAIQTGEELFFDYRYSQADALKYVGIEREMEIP
T1 sequence (Q15910 whole entry, one chain of several): as the sequence (Q15910 whole entry Y641N, one chain of several) above, with N641Y counted along it
Chain of Histone-lysine N-methyltransferase EZH2 (Homo sapiens, UniProt Q15910) (Q15910 whole entry): as the sequence (Q15910 whole entry Y641N, one chain of several) above, with N641Y counted along it

SMILES	IC50 [2] [nM]	microsomal CLint at 1 µM [3] [µL/min/mg]	logD [5]	IC50 [6] [nM]	IC50 [8] [nM]	further results
Cc1cc(C)c(CN2CCc3ccc(OC(C)C)c(Cl)c3C2=O)c(=O)[nH]1	1190	53 to 53.8	2.7	1160	–	solubility kinetic [1]: 19.6 µM (≈ 7.35 µg/mL); Papp A→B (MDR1 [4]): 7.9 ×10⁻⁶ cm/s; Papp [7]: 19.6 ×10⁻⁶ cm/s
COc1cccc(C(=O)NCc2c(C)cc(C)[nH]c2=O)c1F	–	–	1.4	–	> 150000	–
COc1ccc2c(c1Cl)C(=O)N(Cc1c(C)cc(C)[nH]c1=O)CCO2	–	40	1.3	–	650	–
Cc1cc(C)c(CN2CCc3ccc(OC(C)C)c(C)c3C2=O)c(=O)[nH]1	–	102	–	–	160	Kd [9]: 37.4 nM
Cc1cc(C)c(CN2CCc3c(C)cc(O[C@@H]4CCOC4)c(Cl)c3C2=O)c(=O)[nH]1	290	–	2.1	406	18	IC50 [10]: 61 nM
Cc1cc(C)c(CN2CCc3ccc(-c4c(C)noc4C)c(Cl)c3C2=O)c(=O)[nH]1	105	–	2.6	121	3.2	Ki [8]: 2 nM; IC50 [10]: 8.8 nM; Ki [10]: 6.3 nM
COc1cccc(C(=O)NCc2c(C)cc(C)[nH]c2=O)c1OC	–	–	1.7	–	> 140000	–
CCOc1cccc(C(=O)NCc2c(C)cc(C)[nH]c2=O)c1C	–	–	2.1	–	2000	–
Cc1cc(C)c(CN2CCc3c(Cl)cc(-c4c(C)nn(C)c4C)c(Cl)c3C2=O)c(=O)[nH]1	15300	–	3.4	12800	1500	IC50 [10]: 6000 nM
Cc1cc(C)c(CNC(=O)c2ccccc2C)c(=O)[nH]1	–	–	–	–	> 200000	–
Cc1cc(C)c(CNC(=O)c2cccc(OC(C)C)c2Cl)c(=O)[nH]1	–	–	2	–	1300	–
COc1cccc(C(=O)NCc2c(C)cc(C)[nH]c2=O)c1	–	–	1.7	–	> 150000	–
Cc1cc(C)c(CN2CCc3c(Cl)cc(-c4cn[nH]c4C)c(Cl)c3C2=O)c(=O)[nH]1	873	–	3.1	1340	24	IC50 [10]: 110 nM
COc1cccc(C(=O)NCc2c(C)cc(C)[nH]c2=O)c1Cl	–	8	1.2	–	7200	–
CCOc1ccc2c(c1Cl)C(=O)N(Cc1c(C)cc(C)[nH]c1=O)CC2	–	37	2.2	–	–	–
Cc1cc(C)c(CN2CCc3c(Cl)cc(-c4cn[nH]c4)c(Cl)c3C2=O)c(=O)[nH]1	1730	–	3	1580	51	IC50 [10]: 270 to 271 nM
Cc1cc(C)c(CNC(=O)c2cccc(OC(C)C)c2C)c(=O)[nH]1	–	–	2.1	–	1400	Kd [9]: 252 nM
Cc1cc(C)c(CN2CCc3ccc(OC(C)C)cc3C2=O)c(=O)[nH]1	–	19	2.5	–	–	–
COc1cccc(C(=O)NCc2c(C)cc(C)[nH]c2=O)c1C	–	–	1.5	–	5700	–
COc1ccc2c(c1Cl)C(=O)N(Cc1c(C)cc(C)[nH]c1=O)CC2	–	35	1.8	–	–	–
COc1cccc(C(=O)NCc2c(C)cc(C)[nH]c2=O)c1O	–	–	1.9	–	44000	–
Cc1cc(C)c(CN2CCc3c(Cl)cc(-c4c(C)n[nH]c4C)c(Cl)c3C2=O)c(=O)[nH]1	502	–	3.4	959	16	IC50 [10]: 82 nM
COc1ccc2c(c1Cl)C(=O)N(Cc1c(C)cc(C)[nH]c1=O)CCC2	–	82	1.7	–	150	–
Cc1cc(C)c(CN2CCc3ccc(O[C@@H]4CCOC4)c(Cl)c3C2=O)c(=O)[nH]1	796	21	1.5	512	–	solubility kinetic [1]: 510 µM (≈ 205 µg/mL); Papp A→B (MDR1 [4]): 1.7 ×10⁻⁶ cm/s; microsomal CLint at 1 µM [11]: 31 µL/min/mg; Papp [7]: 12.3 ×10⁻⁶ cm/s
Cc1cc(C)c(CN2CCc3c(Cl)cc(O[C@@H]4CCOC4)c(Cl)c3C2=O)c(=O)[nH]1	170	21	2.5	155	5.6	solubility kinetic [1]: 26 µM (≈ 11.4 µg/mL); Papp A→B (MDR1 [4]): 4.5 ×10⁻⁶ cm/s; efflux ratio (MDR1 [12]): 4.7; IC50 [10]: 18 nM; microsomal CLint at 1 µM [11]: 163 µL/min/mg; Papp [7]: 14.7 ×10⁻⁶ cm/s
Cc1cc(C)c(CN2CCc3c(Cl)cc(-c4c(C)noc4C)c(Cl)c3C2=O)c(=O)[nH]1	15	107	3.1	25	–	fold change (FC) (Mus musculus [13]): 99.2; solubility kinetic [1]: 93.5 µM (≈ 41.7 µg/mL); inhibition in vivo at 200 mg/kg (Mus musculus [14]): 55.5%; Time [15]: 6 h; Activity (KARPAS-422 [16]): Active; fold change (FC) (Mus musculus [17]): 57.9; fold change (FC) (Mus musculus [18]): 208.9; Activity (KARPAS-422 [19]): Active; fold change (FC) (Mus musculus [20]): 31.6; Papp A→B (MDR1 [4]): 5.2 ×10⁻⁶ cm/s; efflux ratio (MDR1 [12]): 4.6; Ki [8]: 0.7 nM; inhibition in vivo at 300 mg/kg (Mus musculus [21]): 66.4%; TGI (KARPAS-422 [22]): Active; Time [23]: <= 6 hr; fraction unbound [24]: 0.85; Activity (Mus musculus [25]): < 10%; microsomal CLint at 1 µM [11]: 531 µL/min/mg; Papp [7]: 15.7 ×10⁻⁶ cm/s
Cc1cc(C)c(CN2CCc3c(F)cc(O[C@@H]4CCOC4)c(Cl)c3C2=O)c(=O)[nH]1	994	–	2.1	1030	56	IC50 [10]: 260 nM
